Read-outs that look alike come from different tables or passages of the source.
Legend:
[1] = system: acute hepatopathy model (galactosamine-elicited); test: D-galactosamine acute hepatopathy model in rats, serum biochemical liver function test (inhibiting ratio); assay type: in vivo, rat (Crj: Wister); settings: rat, oral; for inhibition in vivo at 0.1 mg/kg / inhibition in vivo at 0.03 mg/kg / inhibition in vivo at 0.01 mg/kg / inhibition in vivo at 1 mg/kg: 24 h; for inhibition in vivo at 0.01 mg/kg: 10 μg/kg × 3
Experimental: (§1) Crj: Wister rats (7 weeks old, weight: 220-250 g) were kept without food for 16 hours, and hydrochloric acid-D-galactosamine 800 mg/kg was administrated by intra peritonealy injection in order to elicit acute hepatopathy model. After 24 hours from the administration of galactosamine, blood sample was collected under ether anesthesia and a serum was separated. The serum was assayed for serum biochemical profile of liver function test by an automatic analyzer (AU 550 available Orympus Kogaku Kogyo K.K.).
(§2) Test compound was dissolved in 0.5% ethanol physiological saline, which was orally administered by force using an oral sonde for rat at 30 minutes before, 2 hours and 6 hours after the administration of the galactosamine.
The following four items were tested for the serum biochemical liver function test: glutamic oxaloacetic transaminase (GOT), glutamic pyruvic transaminase (GPT) lactate dehydrogenase (LDH)
The inhibiting Ratio (%) was obtained by the results of the serum biochemical profile of liver functional test how much the increases in the above four items by the administration of galactosamine was inhibited by the test compounds. The Inhibiting, Ratio (%) was calculated by the following equation: [formula] (All of the data in the equation are represented by average) […]
(§3) This test was carried out according the same manner as in the Example 1 providing the following compounds were used as test compounds.
(§4) This test was carried out according the same manner as in the Example 1 using the following compounds as test compounds.
(§5) This test was carried out according the same manner as in the Example 1 excepting the following compounds were used as test compounds.

[2] = observation of diarrhea and loose feces in the rats; assay type: in vivo, rat (Crj: Wister); settings: rat, oral
Experimental: as §1, §2
The generation of a diarrhea and a loose feces observed up to 2 hours after the 3rd administration of the test compounds, and the number of the rats having diarrhea or loose feces were recorded.
as §3, §4, §5

[3] = system: hepatocyte; settings: cited from earlier work
[4] = 100 μg/kg × 3, read-out: inhibiting ratio GOT
[5] = 100 μg/kg × 3, read-out: inhibiting ratio GPT
[6] = 100 μg/kg × 3, read-out: inhibiting ratio T-Bil
[7] = 100 μg/kg × 3, up to 2 hours after 3rd administration
[8] = 30 μg/kg × 3, read-out: inhibiting ratio GOT
[9] = 30 μg/kg × 3, read-out: inhibiting ratio GPT
[10] = 30 μg/kg × 3, read-out: inhibiting ratio T-Bil
[11] = 30 μg/kg × 3, up to 2 hours after 3rd administration
[12] = read-out: inhibiting ratio T-Bil
[13] = 10 μg/kg × 3, up to 2 hours after 3rd administration
[14] = 1000 μg/kg × 3, read-out: inhibiting ratio GOT
[15] = 1000 μg/kg × 3, read-out: inhibiting ratio GPT
[16] = 1000 μg/kg × 3, read-out: inhibiting ratio T-Bil
[17] = 1000 μg/kg × 3, up to 2 hours after 3rd administration

For `CCC[C@@H](C)C(F)(F)C(=O)CC[C@H]1[C@H](O)CC(=O)[C@@H]1CCCCCCC(=O)O` [Test Compound 4, 7-[(1R,2R,3R)-2-{4,4-difluoro-5(R)-methyl-3-oxooctyl}-3-hydroxy-5-oxocyclopentyl]heptanoic acid], the inhibition in vivo at 0.1 mg/kg [1, 4] was 54%, the inhibition in vivo at 0.1 mg/kg [1, 5] was 57% and the inhibition in vivo at 0.1 mg/kg [1, 6] was 89%. The “inhibiting ratio LDH” value ([1]; 100 μg/kg × 3) was 51% and the “diarrhea / loose feces (number of rats having diarrhea or loose feces)” value (shortened to “diarrhea / loose feces”) [2, 7] was “no diarrhea in any cases”.
In the case of `CCCCC(F)(F)C(=O)CC[C@H]1[C@H](O)CC(=O)[C@@H]1CCCCCCC(=O)O` [Test Compound 3, 13,14-dihydro-15-keto-16,16-difluoro-PGE1, reference compound], the inhibition in vivo at 0.1 mg/kg [1, 4] is reported as 63%, the inhibition in vivo at 0.1 mg/kg [1, 5] is reported as 76% and the inhibition in vivo at 0.1 mg/kg [1, 6] is reported as 80%. For the same compound, the “inhibiting ratio LDH” value ([1]; 100 μg/kg × 3) was 61%, the “diarrhea / loose feces” value [2, 7] was 1/6 and the “loose feces (number of rats)” value [2, 7] was 2/6.
In the case of `CCCCC(C)(C)[C@H](O)/C=C/[C@H]1[C@H](O)CC(=O)[C@@H]1C/C=C\CCCC(=O)O` [16,16-dimethyl-PGE2], the hepatocyte protecting activity [3] is listed as “have a hepatocyte protecting activity”.
For `CCCCC(F)(F)C(=O)CC[C@H]1[C@H](O)CC(=O)[C@@H]1C/C=C\CCCC(=O)O` [Test Compound 1, 13,14-dihydro-15-keto-16,16-difluoro-PGE2, reference compound], the inhibition in vivo at 0.03 mg/kg [1, 8] was 28%, the inhibition in vivo at 0.03 mg/kg [1, 9] was 42% and the inhibition in vivo at 0.03 mg/kg [1, 10] was 82%. For the same compound, the “inhibiting ratio LDH” value ([1]; 30 μg/kg × 3) was 22% and the “diarrhea / loose feces” value [2, 11] was 3/10.
With `CCC(CC)CC(F)(F)C(=O)CC[C@H]1[C@H](O)CC(=O)[C@@H]1CCCCCCC(=O)O` [Test Compound 13, 7-[(1R,2R,3R)-2-(4,4-difluoro-6-ethyl-3-oxooctyl)-3-hydroxy-5-oxocyclopentyl]heptanoic acid] the inhibition in vivo at 0.01 mg/kg ([1]; read-out: inhibiting ratio GOT) was 47%, the inhibition in vivo at 0.01 mg/kg ([1]; read-out: inhibiting ratio GPT) was 42% and the inhibition in vivo at 0.01 mg/kg [1, 12] was 75%. The “diarrhea / loose feces” value [2, 13] was “non”.
With `CC[C@@H](C)CC(F)(F)C(=O)CC[C@H]1[C@H](O)CC(=O)[C@@H]1CCCCCCC(=O)O` [Test Compound 11, 7-[(1R,2R,3R)-2-{4,4-difluoro-6(R)-methyl-3-oxooctyl}-3-hydroxy-5-oxocyclopentyl]heptanoic acid] the inhibition in vivo at 0.01 mg/kg ([1]; read-out: inhibiting ratio GOT) was 45%, the inhibition in vivo at 0.01 mg/kg ([1]; read-out: inhibiting ratio GPT) was 34% and the inhibition in vivo at 0.01 mg/kg [1, 12] was 56%. For the same compound, the “diarrhea / loose feces” value [2, 13] was “non”.
`CC(C)CC(F)(F)C(=O)CC[C@H]1[C@H](O)CC(=O)[C@@H]1CCCCCCC(=O)O` [Test Compound 12, 7-[(1R,2R,3R)-2-(4,4-difluoro-6-methyl-3-oxoheptyl)-3-hydroxy-5-oxocyclopentyl]heptanoic acid] showed an inhibition in vivo at 0.1 mg/kg [1, 4] of 38%, an inhibition in vivo at 0.1 mg/kg [1, 5] of 40% and an inhibition in vivo at 0.1 mg/kg [1, 6] of 69%. The “diarrhea / loose feces” value [2, 7] was “non”.
Compound `CC(C)CCC(F)(F)C(=O)CC[C@H]1[C@H](O)CC(=O)[C@@H]1C/C=C\CCCC(=O)O` [Test Compound 2, Z-7-[(1R,2R,3R)-2-(4,4-difluoro-7-methyl-3-oxooctyl)-3-hydroxy-5-oxocyclopentyl]hept-5-enoic acid] has an inhibition in vivo at 0.03 mg/kg [1, 8] of 29%, an inhibition in vivo at 0.03 mg/kg [1, 9] of 36% and an inhibition in vivo at 0.03 mg/kg [1, 10] of 51%. The “inhibiting ratio LDH” value ([1]; 30 μg/kg × 3) was 32% and the “diarrhea / loose feces” value [2, 11] was “no diarrhea was observed in every rat”.
With `CC(C)CCC(F)(F)C(=O)CC[C@H]1CCC(=O)[C@@H]1CCCCCCC(=O)O` [Test Compound 7, 7-[(1R,2R)-2-(4,4-difluoro-7-methyl-3-oxooctyl)-5-oxocyclopentyl]heptanoicacid] the inhibition in vivo at 1 mg/kg [1, 14] was 52%, the inhibition in vivo at 1 mg/kg [1, 15] was 63% and the inhibition in vivo at 1 mg/kg [1, 16] was 86%. For the same compound, the “inhibiting ratio LDH” value ([1]; 1000 μg/kg × 3) was 62% and the “diarrhea / loose feces” value [2, 17] was “no diarrhea”.
`CC(C)C[C@@H](C)C(F)(F)C(=O)CC[C@H]1[C@H](O)CC(=O)[C@@H]1CCCCCCC(=O)O` [Test Compound 6, 7-[(1R,2R,3R)-2-{4,4-difluoro-5(R),7-dimethyl-3-oxooctyl}-3-hydroxy-5-oxocyclopentyl]heptanoic acid] gave an inhibition in vivo at 1 mg/kg [1, 14] of 60%, an inhibition in vivo at 1 mg/kg [1, 15] of 71% and an inhibition in vivo at 1 mg/kg [1, 16] of 88%. The “inhibiting ratio LDH” value ([1]; 1000 μg/kg × 3) was 63% and the “diarrhea / loose feces” value [2, 17] was “no diarrhea”.
For `CCCCC[C@@](C)(O)/C=C/[C@H]1[C@H](O)CC(=O)[C@@H]1C/C=C\CCCC(=O)O` [15-methyl-PGE2], the hepatocyte protecting activity [3] is listed as “have a hepatocyte protecting activity”.
Work on `CCC[C@H](C)C(F)(F)C(=O)CC[C@H]1[C@H](O)CC(=O)[C@@H]1CCCCCCC(=O)O` [Test Compound 8] yielded an inhibition in vivo at 1 mg/kg [1, 14] of 59%, an inhibition in vivo at 1 mg/kg [1, 15] of 56% and an inhibition in vivo at 1 mg/kg [1, 16] of 92%. The “inhibiting ratio LDH” value ([1]; 1000 μg/kg × 3) was 63% and the “diarrhea / loose feces” value [2, 17] was “no diarrhea”.
`CC(C)CCC(F)(F)C(=O)CC[C@H]1[C@H](O)CC(=O)[C@@H]1CCCCCCC(=O)O` [Test Compound 5, 7-[(1R,2R,3R)-2-(4,4-difluoro-7-methyl-3-oxooctyl)-3-hydroxy-5-oxocyclopentyl]heptanoic acid] gave an inhibition in vivo at 0.1 mg/kg [1, 4] of 51%, an inhibition in vivo at 0.1 mg/kg [1, 5] of 66% and an inhibition in vivo at 0.1 mg/kg [1, 6] of 72%. The “inhibiting ratio LDH” value ([1]; 100 μg/kg × 3) was 59% and the “diarrhea / loose feces” value [2, 7] was “no diarrhea in any cases”.
Compound `CCC[C@@H](C)C(F)(F)C(=O)CC[C@H]1CCC(=O)[C@@H]1CCCCCCC(=O)O` [Test Compound 10, 7-[(1R,2R)-2-{4,4-difluoro-5(R)-methyl-3-oxooctyl}-5-oxocyclopentyl]heptanoic acid] has an inhibition in vivo at 0.1 mg/kg [1, 4] of 36%, an inhibition in vivo at 0.1 mg/kg [1, 5] of 39% and an inhibition in vivo at 0.1 mg/kg [1, 6] of 59%. The “diarrhea / loose feces” value [2, 7] was “non”.
With `CC[C@H](C)CC(F)(F)C(=O)CC[C@H]1[C@H](O)CC(=O)[C@@H]1CCCCCCC(=O)O` [Test Compound 9, 7-[(1R,2R,3R)-2-{4,4-difluoro-6(S)-methyl-3-oxooctyl}-3-hydroxy-5-oxocyclopentyl]heptanoic acid] the inhibition in vivo at 0.1 mg/kg [1, 4] was 44%, the inhibition in vivo at 0.1 mg/kg [1, 5] was 54% and the inhibition in vivo at 0.1 mg/kg [1, 6] was 80%. For the same compound, the inhibition in vivo at 1 mg/kg [1, 14] was 84%, the inhibition in vivo at 1 mg/kg [1, 15] was 88% and the inhibition in vivo at 1 mg/kg [1, 16] was 95%. For the same compound, the “diarrhea / loose feces” value [2, 7] was “non” and the “diarrhea / loose feces” value [2, 17] was “non”.
